Assay results as given in ChEMBL document CHEMBL2311342, “Inhibitors of the Yersinia protein tyrosine phosphatase through high throughput and virtual screening approaches” (Bioorg Med Chem Lett, 2013).

Assay: Inhibition of Yersinia pestis YopH catalytic domain (residues 163-468) using pNPP substrate

Cn1nc(-c2ccc(Cl)cc2)nc2c(=O)n(C)c(=O)nc1-2 and Cn1nc(-c2cccs2)nc2c(=O)n(C)c(=O)nc1-2 are within 1.5-fold of each other in IC50: 1280 nM for the first, 880 nM for the second.

First: Cc1c(N=c2c(=O)c3ccccc3c2=O)c(=O)n(-c2ccccc2)n1C
Second: CN1C(=O)C(=Cc2ccc(OCc3c(F)cccc3Cl)cc2)C(=O)N(C)C1=O
The IC50 of the first is 2.5-fold lower: 4010 nM for the first, 9890 nM for the second.

O=C(O)c1ccc(-c2nc(-c3ccc(-c4ccccc4)cc3)c(-c3ccc(-c4ccccc4)cc3)[nH]2)cc1 and O=C(O)c1ccc(N2C(=O)c3ccc(-c4nc5ccccc5c(=O)o4)cc3C2=O)cc1 are within 1.5-fold of each other in IC50: 2150 nM for the first, 1920 nM for the second.

CN1C(=O)C(=Cc2cn(Cc3cnc(Cl)s3)c3ccccc23)C(=O)N(C)C1=O and O=C1NC(=S)NC(=O)C1=Cc1ccc(N2CCc3ccccc3C2)c([N+](=O)[O-])c1 are within 1.5-fold of each other in IC50: 4610 nM for the first, 4730 nM for the second.

Going from O=C(O)c1cc(-c2ccc(/C=N/Nc3nc4nonc4nc3Nc3ccc(F)cc3)o2)ccc1O to O=C1OC(c2ccc(Cl)cc2)=N/C1=C/Nc1ccc(O)c(C(=O)O)c1, the IC50 rises from 380 nM to 8100 nM (21-fold).

Compared with O=C(COc1ccccc1)N1CCN(S(=O)(=O)c2ccccc2[N+](=O)[O-])CC1, NC(=S)N1N=C(c2ccc([N+](=O)[O-])cc2)/C(=N\Nc2ccc(S(=O)(=O)O)cc2)C1=O is 4.7-fold higher in IC50: 980 nM for the first, 4610 nM for the second. The first is the more potent here.

Compared with O=C1Nc2ccc(Br)cc2/C1=C1/SC(=S)N(c2cccc(C(F)(F)F)c2)C1=O, O=C1NC(=O)C(=Cc2ccc(OCc3ccc([N+](=O)[O-])cc3)c(Br)c2)C(=O)N1 is 1.5-fold higher in IC50: 1220 nM for the first, 1890 nM for the second.

First: CCCCN1C(=O)/C(=C2\SC(N3CCC(C(N)=O)CC3)=NC2=O)c2ccccc21
Second: COc1cc(/C=C2/N=C(c3ccc(Cl)c(Cl)c3)OC2=O)cc(OC)c1OC
The IC50 of the first is 2.7-fold lower: 1680 nM for the first, 4480 nM for the second. The first is the more potent here.

Work on Cc1c(/C(=N/OC(=O)c2ccc(F)cc2)C(F)(F)F)cc(-c2ccc(S(C)(=O)=O)cc2)n1-c1ccc(F)cc1 yielded an IC50 of 2350 nM.
